Experiment [1] has as its system MCF-7, MDA-MB-231, and MDA-MB-436 cells. The experiment is described as follows: Trypan blue exclusion assay. It counts as cell-based, human. Conditions: dose- and time-dependent. As to the method:
Cells were seeded into 96-well plate and pre-cultured for 24 h, then treated with Eth for 24. Cell cytotoxicity was determined by MTT assay. The absorbance was measured at 490 nm by automated microplated reader (BioTek Instruments, Inc., Winooski, VT, USA), and the cell death rate was calculated as followed: inhibition rate (%) = (average A490 of the control group − average A490 of the experimental group)/(average A490 of the control group − average A490 of the blank group) × 100%. Cell viability was estimated by trypan blue dye exclusion.

Experiment [2] deals with LC3 redistribution to autophagosomes in BC cells. The experiment in a line: GFP-LC3 autophagy assay (confocal microscopy). It counts as cell-based, human. As to conditions: pQCXIP-GFP-LC3 transfected cells, Eth 24 h. From the text:
The cells were transfected with pQCXIP-GFP-LC3 plasmid using the Lipofectamine 3000 (Invitrogen; Thermo Fisher Scientific, Inc.) according to the recommended protocol by the manufacturer and then fixed in 4% paraformaldehyde. The percentage of cells with fluorescent dots representing GFP-LC3 translocation was counted. For visualization of cell nucleus, DAPI was used. Sections were observed using an Olympus laser scanning confocal microscope with imaging software (Olympus Fluoview FV-1000, Tokyo, Japan).
Figure 2 Eth induces autophagy in BC cells. (A): MCF-7, MDA-MB-231, or MDA-MB-436 cells were treated with increasing concentrations of Eth for 24 h. Western blot was performed using antibodies indicated. GAPDH was used as the loading control. (B): MCF-7 (MDA-MB-231 or MDA-MB-436) cells were treated with 2.4 µM (2.0 µM or 2.0 µM) Eth for the indicated times, and cell lysates were subjected to western blot assay. (C): MCF-7, MDA-MB-231, or MDA-MB-436 cells transfected with pQCXIP-GFP-LC3 plasmid were treated with increasing concentrations of Eth for 24 h, and assessed by immunoﬂuorescence analyses. Scale bar = 20 µm. (D): MDA-MB-231 or MDA-MB-436 cells transfected with pQCXIP-GFP-LC3 plasmid were treated with Eth (2.0 µM) and/or 3-MA (1 mM) for 24 h, and assessed by immunoﬂuorescence analyses. Scale bar = 20 µm. […] (F): MCF-7, MDA-MB-231, or MDA-MB-436 cells were treated with Eth (3.5 µM, 3.0 µM, or 3.0 µM) and/or 3-MA (1 mM) for 24 h and analyzed by MTT assay. (G): MCF-7, MDA-MB-231, or MDA-MB-436 cells were treated with Eth (2.4 µM, 2.0 µM, or 2.0 µM) and/or 3-MA (1 mM) for 24 h, and western blot was performed using antibodies indicated. *P < 0.05.
Figure 3 Eth induces autophagy through the AMPK/mTORC1 signaling. […] (D): MDA-MB-231 or MDA-MB-436 cells transfected with pQCXIP-GFP-LC3 plasmid were treated with Eth (2.0 µM) and/or CC (25 µM) for 24 h, and assessed by immunoﬂuorescence analyses. […] (G): MDA-MB-231 or MDA-MB-436 cells transfected with pQCXIP-GFP-LC3 plasmid were treated with Eth (1.0 µM or 1.6 µM) and/or Met (10 mM) for 24 h, and assessed by immunoﬂuorescence analyses. […]

The test system of a further experiment is seven BC cell lines. The experiment in a line: MTT assay, summary over BC cell lines. It counts as cell-based. Conditions: Homo sapiens, range over BC cell lines. From the text:
Human BC cell lines MCF-7, MDA-MB-231, DMA-MB-436, SK-BR3, MDA-MB-468, MDA-MB-453, and MDA-MB-435S and non-tumorigenic MCF-10A human mammary epithelial cells were obtained from American Type Culture Collection (ATCC; Manassas, VA, USA). MCF-7, SK-BR3, MDA-MB-231, and MDA-MB-436 cells were maintained in Dulbecco’s modified Eagle’s medium (DMEM; high glucose; Gibco; Thermo Fisher Scientific, Inc., Waltham, MA, USA) supplemented with 10% fetal bovine serum (FBS; HyClone; Logan, UT, USA) and antibiotics and incubated in a humidified atmosphere with 5% CO2 at 37°C. MDA-MB-468, MDA-MB-453, and MDA-MB-435S cells were maintained in Leibovitz’s L-15 (Gibco) supplemented with 10% FBS and antibiotics and incubated in a humidified atmosphere without CO2 at 37°C. MCF-10A cells were maintained in DMEM/F12 medium containing 5% horse serum (HS), insulin ([…]), epidermal growth factor (EGF, 20 ng/mL), choleratoxin ([…]), hydrocortisone ([…]), penicillin (50 U/mL), and streptomycin (50 U/mL), and incubated in a humidified atmosphere with CO2 at 37°C.
Cells were seeded into 96-well plate and pre-cultured for 24 h, then treated with Eth for 24. Cell cytotoxicity was determined by MTT assay. […]
(Formazan colour is commonly taken as a measure of viable cells.)

The structures appear in SMILES notation. pIC50: −log10 of the molar value.

By pIC50 is commonly meant the IC50 on a negative log10 scale, so that one unit is a factor of ten. Higher therefore signals a low IC50. In the case of `CCOC1c2c(ccc3c2OCO3)-c2ccc3cc4c(cc3c2N1C)OCO4` (stereo not drawn) [Eth, Ethoxysanguinarine], the viable cells entry in experiment [1] is given as “rapidly reduced viable”. Moreover, the GFP-LC3 staining pattern entry in experiment [2] is on record as “speckled fluorescent staining pattern”. Moreover, in the experiment on seven BC cell lines, the pIC50 was 5.04 to 5.58.

These data come from PMC6960228, “Ethoxysanguinarine, a Novel Direct Activator of AMP-Activated Protein Kinase, Induces Autophagy and Exhibits Therapeutic Potential in Breast Cancer Cells” (Frontiers in Pharmacology, 2020).
